Measurements as given in patent US20070128217A1 (priority 2003, published 2007).

Assays:
[1] = system: control sera (pooled serum of ten healthy LUMC hospital workers; commercial negative donor pooled serum from the Dutch bloodbank); type: binding, human; set-up: Binding of Control serum LUMC to linear peptides / Binding of Control serum Blood-bank to linear peptides / Binding of Control serum LUMC to looped peptides / Binding of Control Serum Blood-Bank to Looped peptides / Binding of Control serum LUMC to linear peptides of the protein M of SARS-CoV Urbani / Binding of Control serum Blood-bank to linear peptides of the protein M of SARS-CoV Urbani / Binding of Control serum LUMC to looped peptides of the protein M of SARS-CoV Urbani / Binding of Control Serum Blood-Bank to Looped peptides of the protein M of SARS-CoV Urbani: unit not given here
[2] = system: rabbit serum obtained by immunizing a rabbit with the SARS-CoV strain Frankfurt 1; type: binding; set-up: Binding of a rabbit serum to linear peptides / Binding of a rabbit serum to looped peptides / Rabbit serum linear peptides / Rabbit serum looped peptides / Binding of a rabbit serum to linear peptides of protein N of SARS-CoV Urbani (Rabbit serum linear peptides) / Binding of a rabbit serum to looped/cyclic peptides of protein N of SARS-CoV Urbani (Rabbit serum looped peptides): unit not given here
[3] = system: antibodies in sera from SARS patients (sera 1a, 1b, 2, 6, 37, 62, London, SARS-yellow, SARS-green); type: binding, human; set-up: Binding of serum 6 to linear peptides of protein X1 of SARS-CoV Urbani / Binding of serum 37 to linear peptides of protein X1 of SARS-CoV Urbani / Binding of serum 6 to looped/cyclic peptide (PEPSCAN-ELISA) / Binding of serum 37 to looped/cyclic peptide (PEPSCAN-ELISA) / Binding of serum 37 to looped/cyclic peptides of protein X1 of SARS-CoV Urbani / Binding of serum 6 to linear peptides of protein X2 / Binding of serum 37 to linear peptides of protein X2 / Binding of serum 37 to looped/cyclic peptides of protein X2 of SARS-CoV Urbani / Binding of serum 6 to linear peptides of protein M of SARS-CoV Urbani / Binding of serum 37 to linear peptides of protein M of SARS-CoV Urbani / Binding of serum 6 to looped/cyclic peptides of protein M of SARS-CoV Urbani / Binding of serum 37 to looped/cyclic peptides of protein M of SARS-CoV Urbani / Binding of serum 6 to linear peptides of protein X3 of SARS-CoV Urbani / Binding of serum 37 to linear peptides of protein X3 of SARS-CoV Urbani / Binding of serum 37 to looped/cyclic peptides of protein X3 of SARS-CoV Urbani / Binding of serum 6 to linear peptides of protein X4 of SARS-CoV Urbani / Binding of serum 37 to linear peptides of protein X4 of SARS-CoV Urbani / Binding of serum 37 to looped/cyclic peptides of protein X4 of SARS-CoV Urbani / Binding of serum 6 to linear peptides of protein X5 of SARS-CoV Urbani / Binding of serum 37 to linear peptides of protein X5 of SARS-CoV Urbani / Binding of serum 37 to looped/cyclic peptides of protein X5 of SARS-CoV Urbani / Binding of serum 6 to linear peptides of protein N of SARS-CoV Urbani / Binding of serum 37 to linear peptides of protein N of SARS-CoV Urbani / Binding of serum 6 to linear peptide (PEPSCAN-ELISA) / Binding of serum 1a to looped/cyclic peptides of protein N of SARS-CoV Urbani / Binding of serum 1b to looped/cyclic peptides of protein N of SARS-CoV Urbani / Binding of serum 2 to looped/cyclic peptides of protein N of SARS-CoV Urbani / Binding of serum 6 to looped/cyclic peptides of protein N of SARS-CoV Urbani / Binding of serum 37 to looped/cyclic peptides of protein N of SARS-CoV Urbani / Binding of serum 62 to looped/cyclic peptides of protein N of SARS-CoV Urbani / Binding of serum London to looped/cyclic peptides of protein N of SARS-CoV Urbani / Binding of serum SARS-green to looped/cyclic peptides of protein N of SARS-CoV Urbani: unit not given here
[4] = system: recombinant human anti-SARS-CoV antibody 03-018; type: binding; set-up: Binding of antibody 03-018 to linear peptides of the N protein of SARS-CoV Urbani / Binding of antibody 03-018 to looped/cyclic peptides of the N protein of SARS-CoV Urbani: unit not given here

Row | Sequence | Binding of a rabbit serum to linear peptides of protein N of SARS-CoV Urbani (Rabbit serum linear peptides) [2] | Binding of a rabbit serum to looped/cyclic peptides of protein N of SARS-CoV Urbani (Rabbit serum looped peptides) [2] | Binding of serum 1a to linear peptides of protein N of SARS-CoV Urbani [3] | Binding of serum 1a to looped/cyclic peptides of protein N of SARS-CoV Urbani [3] | Binding of serum 1b to linear peptides of protein N of SARS-CoV Urbani [3] | Binding of serum 1b to looped/cyclic peptides of protein N of SARS-CoV Urbani [3] | Binding of serum 2 to linear peptides of protein N of SARS-CoV Urbani [3] | Binding of serum 2 to looped/cyclic peptides of protein N of SARS-CoV Urbani [3] | Binding of serum 6 to linear peptides of protein N of SARS-CoV Urbani [3] | Binding of serum 6 to looped/cyclic peptides of protein N of SARS-CoV Urbani [3] | Binding of serum 37 to linear peptides of protein N of SARS-CoV Urbani [3] | Binding of serum 37 to looped/cyclic peptides of protein N of SARS-CoV Urbani [3] | Binding of serum 62 to linear peptides of protein N of SARS-CoV Urbani [3] | Binding of serum 62 to looped/cyclic peptides of protein N of SARS-CoV Urbani [3] | Binding of serum London to linear peptides of protein N of SARS-CoV Urbani [3] | Binding of serum London to looped/cyclic peptides of protein N of SARS-CoV Urbani [3] | Binding of serum SARS-green to linear peptides of protein N of SARS-CoV Urbani [3] | Binding of serum SARS-green to looped/cyclic peptides of protein N of SARS-CoV Urbani [3] | Binding of serum SARS-yellow to linear peptides of protein N of SARS-CoV Urbani [3] | Binding of serum SARS-yellow to looped/cyclic peptides of protein N of SARS-CoV Urbani [3] | further results
1 | GQGVPINTNSGPDDQ | 0.1 | 0.0 | 0.3 | 0.2 | 0.1 | 0.1 | 0.2 | 0.3 | 0.2 | 0.1 | 0.8 | 0.4 | 0.6 | 0.1 | 0.6 | 0.3 | 0.5 | 0.1 | 0.6 | 0.1 | Binding of Control Serum Blood-Bank to Looped peptides [1]: 0.5; Binding of Control serum Blood-bank to linear peptides [1]: 0.5; Binding of Control serum LUMC to linear peptides [1]: 0.5; Binding of Control serum LUMC to looped peptides [1]: 0.3; Binding of antibody 03-018 to linear peptides of the N protein of SARS-CoV Urbani [4]: 0.1; Binding of antibody 03-018 to looped/cyclic peptides of the N protein of SARS-CoV Urbani [4]: 0.2
2 | TDEAQPLPQRQKKQP | 0.1 | 0.0 | 0.2 | 0.2 | 0.2 | 0.0 | 0.3 | 0.2 | 0.2 | 0.1 | 0.7 | 0.1 | 0.7 | 0.0 | 1.2 | 0.1 | 0.7 | 0.0 | 1.0 | 0.1 | Control Serum Blood-Bank Looped peptides [1]: 0.5; Control serum Blood-bank linear peptides [1]: 0.7; Control serum LUMC linear peptides [1]: 0.6; Control serum LUMC looped peptides [1]: 0.2; Binding of antibody 03-018 to linear peptides of the N protein of SARS-CoV Urbani [4]: 0.1; Binding of antibody 03-018 to looped/cyclic peptides of the N protein of SARS-CoV Urbani [4]: 0.1
3 | KQPTVTLLPAADMDD | 0.1 | 0.1 | 0.3 | 0.3 | 0.2 | 0.2 | 0.2 | 0.2 | 0.2 | 0.0 | 1.2 | 0.4 | 0.8 | 0.3 | 0.6 | 0.2 | 2.4 | 0.6 | 1.1 | 0.3 | Control Serum Blood-Bank Looped peptides [1]: 0.4; Control serum Blood-bank linear peptides [1]: 0.7; Control serum LUMC linear peptides [1]: 0.7; Control serum LUMC looped peptides [1]: 0.3; Binding of antibody 03-018 to linear peptides of the N protein of SARS-CoV Urbani [4]: 0.1; Binding of antibody 03-018 to looped/cyclic peptides of the N protein of SARS-CoV Urbani [4]: 0.2
4 | AQPLPQRQKKQPTVT | 0.2 | 0.2 | 0.3 | 0.2 | 0.2 | 0.1 | 0.4 | 0.2 | 0.4 | 0.1 | 0.7 | 0.3 | 0.8 | 0.2 | 1.6 | 0.2 | 0.3 | 0.3 | 1.4 | 0.2 | Control Serum Blood-Bank Looped peptides [1]: 0.4; Control serum Blood-bank linear peptides [1]: 0.6; Control serum LUMC linear peptides [1]: 0.7; Control serum LUMC looped peptides [1]: 0.3; Binding of antibody 03-018 to linear peptides of the N protein of SARS-CoV Urbani [4]: 0.1; Binding of antibody 03-018 to looped/cyclic peptides of the N protein of SARS-CoV Urbani [4]: 0.1
